According to PubChem BioAssay (NCI):
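Growth conditions: 96-well plates. Treatment: test compound, 48 hours, 5 concentrations. Analysis: linear interpolation between bracketing concentrations; unreached endpoints set to highest concentration. Definition used: TGI = concentration required for complete inhibition of growth.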

How the values were obtained:
Test in all cases: inhibition of tumour cell growth, NCI panel, 48 h
[1] = tested on: 786-0 renal
[2] = tested on: A498 renal
[3] = tested on: A549 NSCLC
[4] = tested on: ACHN renal
[5] = tested on: CCRF-CEM leukemia
[6] = tested on: COLO 205 colon
[7] = tested on: DLD-1 colon
[8] = tested on: DMS 114 small cell lung
[9] = tested on: EKVX NSCLC
[10] = tested on: HCC-2998 colon
[11] = tested on: HCT-116 colon
[12] = tested on: HCT-15 colon
[13] = tested on: HL-60(TB) leukemia
[14] = tested on: HOP-18 NSCLC
[15] = tested on: HOP-92 NSCLC
[16] = tested on: HT29 colon
[17] = tested on: IGROV1 ovarian
[18] = tested on: K-562 leukemia
[19] = tested on: KM12 colon
[20] = tested on: KM20L2 colon
[21] = tested on: LOX IMVI melanoma
[22] = tested on: LXFL 529 NSCLC
[23] = tested on: M14 melanoma
[24] = tested on: M19-MEL melanoma
[25] = tested on: MALME-3M melanoma
[26] = tested on: MOLT-4 leukemia
[27] = tested on: NCI-H23 lung
[28] = tested on: NCI-H460 lung
[29] = tested on: NCI-H522 lung
[30] = tested on: OVCAR-3 ovarian
[31] = tested on: OVCAR-5 ovarian
[32] = tested on: OVCAR-8 ovarian
[33] = tested on: RPMI-8226 leukemia
[34] = tested on: RXF 393 renal
[35] = tested on: RXF-631 renal
[36] = tested on: SF-268 CNS
[37] = tested on: SF-295 CNS
[38] = tested on: SF-539 CNS
[39] = tested on: SK-MEL-2 melanoma
[40] = tested on: SK-MEL-28 melanoma
[41] = tested on: SK-MEL-5 melanoma
[42] = tested on: SK-OV-3 ovarian
[43] = tested on: SN12C renal
[44] = tested on: SNB-19 CNS
[45] = tested on: SNB-75 CNS
[46] = tested on: SNB-78 CNS
[47] = tested on: SR leukemia
[48] = tested on: SW-620 colon
[49] = tested on: TK-10 renal
[50] = tested on: U251 CNS
[51] = tested on: UACC-257 melanoma
[52] = tested on: UACC-62 melanoma
[53] = tested on: UO-31 renal
[54] = tested on: XF 498 CNS
[55] = tested on: CAKI-1 renal
[56] = tested on: DMS 273 small cell lung
[57] = tested on: HOP-62 NSCLC
[58] = tested on: NCI-H226 lung
[59] = tested on: OVCAR-4 ovarian

`COCOCCCCCO[Si](C)(C)C(C)(C)C` showed a TGI [1] of 29 µM, a TGI [2] of 77.8 µM and a TGI [3] of 50 µM. It also gave a TGI [4] of 27.7 µM, a TGI [5] of 58.1 µM and a TGI [6] of 38.5 µM. The TGI [7] was over 100 µM, the TGI [8] was 35.9 µM and the TGI [9] was 46.8 µM. For the same compound, the TGI [10] was 31.9 µM, the TGI [11] was 26.4 µM and the TGI [12] was 32.1 µM. The TGI [13] was 30.9 µM, the TGI [14] was 65.3 µM and the TGI [15] was 36.9 µM. It also gave a TGI [16] of 30.8 µM, a TGI [17] of 69.7 µM and a TGI [18] of 54.9 µM. It also gave a TGI [19] of 63.2 µM, a TGI [20] of 75.8 µM and a TGI [21] of 31.2 µM. For the same compound, the TGI [22] was over 100 µM, the TGI [23] was 48.7 µM and the TGI [24] was 70 µM. For the same compound, the TGI [25] was 47.9 µM, the TGI [26] was 36.9 µM and the TGI [27] was 42.7 µM. The TGI [28] was 43.4 µM, the TGI [29] was 28.6 µM and the TGI [30] was 27.6 µM. For the same compound, the TGI [31] was 44.9 µM, the TGI [32] was 41.2 µM and the TGI [33] was 51.9 µM. The TGI [34] was 31.9 µM, the TGI [35] was 52.8 µM and the TGI [36] was 27.9 µM. The TGI [37] was 30.1 µM, the TGI [38] was 40.8 µM and the TGI [39] was 31 µM. For the same compound, the TGI [40] was over 100 µM, the TGI [41] was 30.3 µM and the TGI [42] was over 100 µM. The TGI [43] was 32 µM, the TGI [44] was 30.6 µM and the TGI [45] was 83.8 µM. For the same compound, the TGI [46] was 48.3 µM, the TGI [47] was 49.6 µM and the TGI [48] was 33.5 µM. It also gave a TGI [49] of 97.6 µM, a TGI [50] of 29.4 µM and a TGI [51] of 40.2 µM. It also gave a TGI [52] of 64.6 µM, a TGI [53] of 42.8 µM and a TGI [54] of 31.6 µM.

`CC(C)OC(=O)c1cc(NC(=O)C(C)(C)C)c(F)cc1Cl` was tested, and the TGI [1] was over 100 µM, the TGI [2] was over 100 µM and the TGI [3] was over 100 µM. The TGI [4] was over 100 µM, the TGI [55] was over 100 µM and the TGI [5] was over 100 µM. The TGI [6] was over 100 µM, the TGI [8] was over 100 µM and the TGI [56] was over 100 µM. It also gave a TGI [9] of over 100 µM, a TGI [10] of over 100 µM and a TGI [11] of over 100 µM. For the same compound, the TGI [12] was over 100 µM, the TGI [13] was over 100 µM and the TGI [14] was over 100 µM. For the same compound, the TGI [57] was over 100 µM, the TGI [15] was over 100 µM and the TGI [16] was over 100 µM. The TGI [17] was over 100 µM, the TGI [18] was over 100 µM and the TGI [19] was over 100 µM. The TGI [20] was over 100 µM, the TGI [21] was over 100 µM and the TGI [22] was over 100 µM. The TGI [23] was over 100 µM, the TGI [24] was over 100 µM and the TGI [25] was over 100 µM. For the same compound, the TGI [26] was over 100 µM, the TGI [58] was over 100 µM and the TGI [27] was over 100 µM. The TGI [28] was over 100 µM, the TGI [29] was over 100 µM and the TGI [30] was over 100 µM. For the same compound, the TGI [59] was over 100 µM, the TGI [31] was over 100 µM and the TGI [32] was over 100 µM. The TGI [33] was over 100 µM, the TGI [34] was over 100 µM and the TGI [35] was over 100 µM. For the same compound, the TGI [36] was over 100 µM, the TGI [37] was over 100 µM and the TGI [38] was over 100 µM. For the same compound, the TGI [39] was over 100 µM, the TGI [40] was over 100 µM and the TGI [41] was over 100 µM. It also gave a TGI [42] of over 100 µM, a TGI [43] of over 100 µM and a TGI [44] of over 100 µM. It also gave a TGI [45] of over 100 µM, a TGI [48] of over 100 µM and a TGI [49] of over 100 µM. The TGI [50] was over 100 µM, the TGI [51] was over 100 µM and the TGI [52] was over 100 µM. It also gave a TGI [53] of over 100 µM and a TGI [54] of over 100 µM.

For `C(=C\c1cc(CCc2nc3ccccc3[nH]2)[nH]n1)/c1ccccc1`, the TGI [1] was over 100 µM, the TGI [2] was over 100 µM and the TGI [3] was over 100 µM. For the same compound, the TGI [4] was over 100 µM, the TGI [55] was over 100 µM and the TGI [5] was over 100 µM. For the same compound, the TGI [6] was over 100 µM, the TGI [7] was over 100 µM and the TGI [8] was over 100 µM. It also gave a TGI [9] of over 100 µM, a TGI [10] of over 100 µM and a TGI [11] of over 100 µM. For the same compound, the TGI [12] was over 100 µM, the TGI [13] was over 100 µM and the TGI [14] was over 100 µM. It also gave a TGI [57] of over 100 µM, a TGI [15] of over 100 µM and a TGI [16] of over 100 µM. The TGI [17] was over 100 µM, the TGI [18] was over 100 µM and the TGI [19] was over 100 µM. For the same compound, the TGI [20] was over 100 µM, the TGI [21] was over 100 µM and the TGI [23] was over 100 µM. It also gave a TGI [24] of over 100 µM, a TGI [25] of over 100 µM and a TGI [26] of over 100 µM. For the same compound, the TGI [58] was over 100 µM, the TGI [27] was over 100 µM and the TGI [28] was over 100 µM. It also gave a TGI [29] of over 100 µM, a TGI [30] of over 100 µM and a TGI [59] of over 100 µM. The TGI [31] was over 100 µM, the TGI [32] was over 100 µM and the TGI [33] was over 100 µM. For the same compound, the TGI [34] was over 100 µM, the TGI [35] was over 100 µM and the TGI [36] was over 100 µM. The TGI [37] was over 100 µM, the TGI [38] was over 100 µM and the TGI [40] was over 100 µM. The TGI [41] was over 100 µM, the TGI [42] was over 100 µM and the TGI [43] was over 100 µM. The TGI [44] was over 100 µM, the TGI [45] was over 100 µM and the TGI [47] was over 100 µM. The TGI [48] was over 100 µM, the TGI [49] was over 100 µM and the TGI [50] was over 100 µM. The TGI [51] was over 100 µM, the TGI [52] was over 100 µM and the TGI [53] was over 100 µM. The TGI [54] was over 100 µM.
